{"source": "patent US6084072A", "about": "“Purified lectin and methods of use” (The Regents of the University of Michigan, priority 1993, dated 2000)", "key": {"amaranthin [1]": {"target": "T1, amaranthin (Amaranthus caudatus, UniProt Q71QF2)", "T1 sequence (Q71QF2 entry or part of it)": "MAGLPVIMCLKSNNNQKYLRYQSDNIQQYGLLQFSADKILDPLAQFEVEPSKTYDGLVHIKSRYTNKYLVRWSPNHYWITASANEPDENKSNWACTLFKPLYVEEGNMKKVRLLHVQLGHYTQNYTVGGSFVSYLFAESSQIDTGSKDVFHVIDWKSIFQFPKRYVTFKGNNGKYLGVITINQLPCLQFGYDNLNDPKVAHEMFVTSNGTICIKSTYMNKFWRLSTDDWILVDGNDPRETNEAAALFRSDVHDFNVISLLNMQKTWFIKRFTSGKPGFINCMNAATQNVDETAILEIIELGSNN", "experiment": "Precipitation of amaranthin by glycoproteins and glycoconjugates, native or glycosidase treated", "assay_type": "binding", "conditions": "for Precipitate formation with amarantin: Glycosidase: β-Galactosidase; for precipitation of amaranthin, in words: untreated glycoprotein or glycoconjugate, 80 μg amaranthin", "experimental": "Glycosidase digestions, and in particular exo-β-galactosidase digestions were carried out for 9 hours at 37° C. in 0.1 M sodium citrate, pH 4.3 using 0.1 unit of enzyme/μmol of terminal galactosyl group. Endo-α-N-acetylgalactosaminidase treatment of asialo-ovine submaxillary mucin was done as described in Sadler, J. E., Rearick, J. L., Paulson, J. C., and Hill, R. L. (1979). GSC Exo-α-N-acetylgalactosaminidase digestion of asialo-ovine submaxillary mucin was carried out according to the recommendations of Genzyme of Boston, Mass. Glycoproteins were analyzed for carbohydrate composition, before and after glycosidase treatment, as described.\n(§1) Precipitation assays were conducted in 1.5 ml centrifuge tubes by the method of So and Goldstein. Indicated amounts of glycoprotein were added to 80 μg of amaranthin, and the total volume was adjusted to 250 μl with phosphate buffered saline. The tubes were incubated at 37° C. and then kept at 4° C. for 2 days. The precipitates were centrifuged, washed with cold Phosphate buffered saline, dissolved in 0.05 N NaOH and analyzed for protein by the method of Lowery et al. using bovine serum albumin as the standard. Hapten inhibition assays were carried out using 80 μg of amaranthin, 5 μg of asialo-ovine submaxillary mucins, and the indicated sugar concentrations. Inhibition was determined relative to the amount of precipitate formed in the control with no sugar added. All precipitation assays were conducted in duplicate to bring the tolerance within ±5% and the amount of precipitate formed average."}, "amaranthin [2]": {"target": "T1, amaranthin", "experiment": "Elution of amaranthin from Synsorb-T column", "assay_type": "binding", "source_text": "The unbound material was washed from the Synsorb-T beads with phosphate buffered saline (PBS), and the A. caudatus lectin was eluted with 0.1 N acetic acid, pH 3. The Synsorb-T beads are fine particles of diatomaceous earth, or sand material bonded to the disaccharide Galβ1,3GalNAcα-O--(CH2)8 CO. […] Thus, it was necessary to reapply the unbound material to the affinity column to obtain the remaining lectin.\nElution of amaranthin from the affinity columns with non-specific agents was employed due to the expense and limited availability of Galβ1,3GalNAc, the best binding ligand. GalNAc (0.5 M) was effective in displacing amaranthin from the Synsorb-T matrix. However, when amaranthin (0.9 mg) was applied to a small Synsorb-T column (0.58 ml), it was observed that 100 μM Galβ1,3GalNAcα-O-benzyl eluted the lectin."}, "PNA [3]": {"target": "T2, PNA (Arachis hypogaea, UniProt P02872)", "T2 construct": "purchased E.Y. Laboratories, San Mateo, Calif; (donated by Dr. A. Chu)", "T2 sequence (P02872 24-273)": "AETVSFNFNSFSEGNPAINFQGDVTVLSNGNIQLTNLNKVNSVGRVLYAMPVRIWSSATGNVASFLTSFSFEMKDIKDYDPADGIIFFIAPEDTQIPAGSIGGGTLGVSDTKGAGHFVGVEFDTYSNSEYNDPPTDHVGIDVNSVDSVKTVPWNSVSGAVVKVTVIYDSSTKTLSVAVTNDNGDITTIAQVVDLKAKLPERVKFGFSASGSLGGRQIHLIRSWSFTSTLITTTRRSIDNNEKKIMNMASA", "experiment": "Hapten inhibition of PNA/asialoglycophorin precipitation", "assay_type": "binding", "conditions": "Galactose = 1; 40 μg PNA, 6 μg asialoglycophorin", "experimental": "(§2) Precipitation reactions with PNA were carried out similarly, except that 40 μg of PNA was used. Hapten inhibition studies with PNA used 40 μg of PNA, 6 μg of asialoglycophorin, and the indicated sugar concentrations."}, "amaranthin [4]": {"target": "T1, amaranthin", "experiment": "Hapten inhibition of amaranthin/asialo-ovine submaxillary mucin precipitation", "assay_type": "binding", "conditions": "for Relative Inhibition potency ACA: N-Acetylgalactosamine = 1", "experimental": "as §1"}, "PNA [5]": {"target": "T2, PNA", "conditions": "reported by Lotan, Pereira; cited from earlier work"}, "PNA [6]": {"target": "T2, PNA", "experiment": "Precipitation reactions with PNA", "assay_type": "binding", "experimental": "as §2"}, "PNA [7]": {"target": "T2, PNA", "conditions": "reported by Pereira; cited from earlier work"}, "[8]": {"target": "T3, Artocarpus intergrifolia lectin (Artocarpus integer, UniProt P18670)", "T3 construct": "host or cells: Artocarpus integrifolia seeds", "T3 sequence (P18670 whole entry)": "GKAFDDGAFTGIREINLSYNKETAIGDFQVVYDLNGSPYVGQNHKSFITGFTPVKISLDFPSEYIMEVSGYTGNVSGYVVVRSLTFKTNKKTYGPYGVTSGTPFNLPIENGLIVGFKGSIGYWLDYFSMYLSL", "T3 sequence (P18673 whole entry partner)": "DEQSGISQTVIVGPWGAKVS", "conditions": "cited from earlier work"}}, "note": "Entries after “also recorded” stand apart in the source; their conditions may differ. Where two headings read alike, the source gives them in different places.", "data": [{"compound": "Asialo-glycopeptide Mt: NH2-terminal 39 amino acids of asialoglycophorin with 12 Galβ1,3GalNAcα-O residues and one N-linked oligosaccharide (LSTTEVAMHTSTSSSVTKSYISSQTNDTHKRDTYAATPR; desialylated glycans; UniProt P02724 20-58, looked up, fragment)", "values": [{"measurement": "Precipitate formation with amarantin", "setting": "amaranthin [1]", "result": "No"}, {"measurement": "Precipitate formation with amarantin", "setting": "amaranthin [1]; listed as asialo-glycopeptide Mt", "result": "reactivity was eliminated; also recorded: no longer precipitates"}, {"measurement": "precipitation of amaranthin, in words", "setting": "amaranthin [1]", "result": "reacted strongly; also recorded: reacts very well with amaranthin"}]}, {"compound": "CC(=O)N[C@H]1C(O)O[C@H](CO)[C@H](O)[C@@H]1O", "note": "(stereo partly shown) [N-Acetylgalactosamine]", "values": [{"measurement": "concentration effective in displacing amaranthin from the Synsorb-T matrix", "setting": "amaranthin [2]", "result": 0.5, "unit": "M"}, {"measurement": "Relative Inhibition potency PNA", "setting": "PNA [3]", "result": "< 0.4"}, {"measurement": "IC50", "setting": "amaranthin [4]", "result": 790000, "unit": "nM"}, {"measurement": "times less potent than Galβ1,3GalNAcα-O--R (α-linked T-antigen disaccharides)", "setting": "amaranthin [4]; inhibitor of amaranthin", "result": 350}, {"measurement": "inhibition of amaranthin/AOSM precipitation, in words", "setting": "amaranthin [4]; listed as GalNAc", "result": "only monosaccharide found to inhibit; also recorded: inhibited by GalNAc"}]}, {"compound": "CC(=O)N[C@H]1C(O)O[C@H](CO)[C@@H](O[C@@H]2O[C@H](CO)[C@H](O)[C@H](O)[C@H]2O)[C@@H]1O", "note": "(stereo partly shown) [Galβ1,4GlcNAc]", "values": [{"measurement": "inhibition of PNA, in words", "setting": "PNA [5]", "result": "rather good inhibitors"}, {"measurement": "Relative Inhibition potency ACA", "setting": "amaranthin [4]", "result": "< 0.008"}]}, {"compound": "fetuin: fetuin, three O-linked oligosaccharide chains per molecule", "values": [{"measurement": "precipitation of amaranthin, in words", "setting": "amaranthin [1]", "result": "did not precipitate amaranthin; also recorded: does not precipitate fetuin"}]}, {"compound": "Galβ1,3GalNAcβ-O-BSA", "values": [{"measurement": "precipitation of PNA, in words", "setting": "PNA [6]", "result": "react equally well"}]}, {"compound": "bovine submaxillary mucin", "values": [{"measurement": "precipitation of amaranthin, in words", "setting": "amaranthin [1]", "result": "did not form precipitates"}]}, {"compound": "Galβ1,3[NeuAcα2,6]GalNAcα-O-BSA", "values": [{"measurement": "precipitation of amaranthin, in words", "setting": "amaranthin [1]", "result": "good precipitating agents; also recorded: can precipitate amaranthin"}]}, {"compound": "asialo-α1 -acidglycoprotein: desialylated α1-acid glycoprotein", "values": [{"measurement": "precipitation of amaranthin, in words", "setting": "amaranthin [1]", "result": "did not precipitate amaranthin"}, {"measurement": "precipitation of / reaction with PNA, in words", "setting": "PNA [7]", "result": "precipitated by"}]}, {"compound": "Asialofetuin: desialylated fetuin", "values": [{"measurement": "precipitation of amaranthin, in words", "setting": "amaranthin [1]", "result": "precipitated a small amount of amaranthin; also recorded: weak precipitation reaction"}]}, {"compound": "CC(=O)N[C@H]1C(O)O[C@H](CO)[C@H](O)[C@@H]1O[C@@H]1O[C@H](CO)[C@H](O)[C@H](O)[C@H]1O", "note": "(stereo partly shown) [Galβ1,3GalNAc]", "values": [{"measurement": "times more potent than GalNAc", "setting": "[8]", "result": 37}, {"measurement": "times more potent than galactose", "setting": "[8]", "result": 100}, {"measurement": "IC50", "setting": "amaranthin [4]", "result": 3400, "unit": "nM"}, {"measurement": "Relative Inhibition potency ACA", "setting": "amaranthin [4]", "result": 232}]}, {"compound": "NeuAcα2,3Galβ1,3GalNAcα-OBSA", "values": [{"measurement": "precipitation of amaranthin, in words", "setting": "amaranthin [1]", "result": "good precipitating agents"}, {"measurement": "precipitation of PNA, in words", "setting": "PNA [6]", "result": "not precipitated"}]}, {"compound": "CC(=O)N[C@H]1[C@@H](OCc2ccccc2)O[C@H](CO)[C@H](O)[C@@H]1O[C@@H]1O[C@H](CO)[C@H](O)[C@H](O)[C@H]1O", "note": "[Galβ1,3GalNAcα-O-benzyl]", "values": [{"measurement": "concentration that eluted the lectin", "setting": "amaranthin [2]; 0.9 mg amaranthin on 0.58 ml Synsorb-T column", "result": 100, "unit": "µM"}, {"measurement": "Relative Inhibition potency PNA", "setting": "PNA [3]", "result": 50}, {"measurement": "IC50", "setting": "amaranthin [4]", "result": 1600, "unit": "nM"}, {"measurement": "Relative Inhibition potency ACA", "setting": "amaranthin [4]", "result": 494}]}, {"compound": "Galβ,3GalNAcα-O-BSA", "values": [{"measurement": "precipitation of amaranthin, in words", "setting": "amaranthin [1]", "result": "good precipitating agents"}, {"measurement": "precipitation of amaranthin, in words", "setting": "amaranthin [1]; listed as Galβ1,3GalNAcα-O-BSA", "result": "can be precipitated by"}, {"measurement": "precipitation of PNA, in words", "setting": "PNA [6]", "result": "react equally well"}]}, {"compound": "laminin", "values": [{"measurement": "precipitation of amaranthin, in words", "setting": "amaranthin [1]", "result": "did not precipitate amaranthin"}]}, {"compound": "CO[C@@H]1O[C@H](CO)[C@H](O)[C@H](O[C@@H]2O[C@H](CO)[C@H](O)[C@H](O[C@@H]3O[C@H](CO)[C@H](O)[C@H](O)[C@H]3O)[C@H]2NC(C)=O)[C@H]1O", "note": "[Galβ1,3GalNAcβ1,3Galβ-O--CH3]", "values": [{"measurement": "Relative Inhibition potency PNA", "setting": "PNA [3]", "result": 38}, {"measurement": "inhibition of amaranthin/AOSM precipitation, in words", "setting": "amaranthin [4]", "result": "poor inhibitor"}, {"measurement": "Relative Inhibition potency ACA", "setting": "amaranthin [4]", "result": "< 0.08"}]}, {"compound": "CO[C@H]1[C@@H](O)[C@@H](CO)O[C@@H](O[C@H]2[C@@H](O)[C@@H](CO)O[C@H](OCc3ccccc3)[C@@H]2NC(C)=O)[C@@H]1O", "note": "[3-O-Methyl Galβ1,3GalNAcα-O-benzyl]", "values": [{"measurement": "Relative Inhibition potency PNA", "setting": "PNA [3]", "result": "< 10"}, {"measurement": "IC50", "setting": "amaranthin [4]", "result": 2000, "unit": "nM"}, {"measurement": "Relative Inhibition potency ACA", "setting": "amaranthin [4]", "result": 395}]}]}
